The source of these data is patent publication US20160367497A1, “METHODS AND COMPOSITIONS FOR TREATING NEUROPATHIES” (Washington University, priority 2007, published 2016).

The test system of assay [1] is neuro2A cells. The assay can be described thus: neurite outgrowth in Neuro2a cells. The assay is classed as cell-based. On the procedure:
FIG. 11A-D illustrates the resveratrol and AICAR stimulation of neurite outgrowth in Neuro2a cells. Neuro2a cells were switched to serum-starvation medium (medium containing 0.2% FCS) and treated with DMSO (vehicle control), resveratrol (10 μM) or AICAR (1 mM). (A) Serum deprivation of Neuro2a cells results in growth of short neurites that increase in length over 72 h. (B) Resveratrol induced rapid neurite outgrowth resulting in elaborate neurite network formation by 48 h. (C) AICAR stimulated extensive neurite outgrowth similar to that observed with resveratrol. (D).
FIG. 12A-M illustrates the dependency of resveratrol-induced neurite outgrowth and mitochondrial biogenesis on AMPK. Neuro2a cells were infected with lentivirus expressing GFP only (FUGW, control), dominant negative AMPK (dnAMPK) or constitutively active AMPK (caAMPK). Three days later cells were shifted to serum-starvation medium containing DMSO (control) or resveratrol (10 μM). In addition, uninfected Neuro2a cells in serum-starvation medium were treated with resveratrol alone, the AMPK inhibitor Compound C (CC, Biomol International L.P. (Plymouth Meeting, Pa.)) (10 μM) alone or with resveratrol and CC together. Images of the cultures captured in bright field and green fluorescence were overlaid to visualize neurite outgrowth. […] Neurite length in cells treated with caAMPK+resveratrol is also shown (G). […] Values were normalized to the 18S transcript. Data shown is representative of two independent experiments.
(§1) Cell culture and Reagents. Neuro2 cells obtained from ATCC were grown in MEM with 1.5 g/L sodium bicarbonate, 0.1 mM nonessential amino acids, 0.1 mM sodium pyruvate, 2 mM L-glutamine with 10% FCS. For differentiation, cells were switched to serum-starvation medium (containing 0.2% FCS). For neurite outgrowth measurements, experiments were done in quadruplicate and 100 neurites per well were randomly measured using the Metamorph software. Dorsal root ganglia sensory and cortical neurons were established from E13.5 mouse embryos, maintained in neurobasal medium supplemented with B27 (and NGF for DRG neurons) and infected with lentiviruses as described (Araki et al., 2004, Science 305:1010-1013; Hawley et al., 2005, Cell Metab 2:21-23). Resveratrol was a gift from Sirtris Pharmaceuticals (Cambridge Mass.) and AICAR was obtained from Toronto Research (North York, Canada). Splitomycin and Compound C were purchased from Biomol (Plymouth Meeting, Pa.) and Calbiochem (San Diego, Calif.). Sirtinol and nicotinamide were purchased from Sigma (Saint Louis, Mo.)
(§2) Neuro2a cells are a widely used as in vitro model of neuronal differentiation. These cells cease to proliferate and begin to differentiate, as evidenced by neurite outgrowth, in response to serum starvation, retinoic acid, or growth factors like neurotrophins and GDNF family ligands. […] Neuro2a cells grown under serum starvation conditions (0.2% fetal calf serum) were treated with AICAR (1 mM) or resveratrol (10 μM).
Since resveratrol activated AMPK and altered the differentiation of Neuro2a cells, we next asked whether AMPK activity was required for resveratrol-induced neurite outgrowth. To address this issue, we infected Neuro2a cells with lentivirus expressing either GFP alone (FUGW-control) or dominant negative AMPK (dnAMPK). After 3 days growth to allow robust lentiviral transgene expression, the medium was replaced with serum starvation medium. […] Resveratrol-induced neurite outgrowth was reduced in the presence of the AMPK pharmacological inhibitor Compound C (CC 10 μM) further supporting the importance of AMPK activity for resveratrol-induced neurite outgrowth.

Assay [2] relates to neuro2A cells. Description: survival of Neuro2A cells in nutrient-deprived conditions. In kind it is cell-based. The conditions noted are these: regardless of the FCS concentration (10% or 0.2%).
Experimental: When Neuro2A cells are grown in culture in presence of 10% FCS, cells proliferate and ultimately die if cells are not passaged. If grown in the presence of 0.2% FCS, neuro2A cells differentiate and project neurites but ultimately die within one week.
A further assay relates to AMPK. Description: AMPK phosphorylation in Neuro2a cells (phospho-specific western blot). The following applies: resveratrol 10 μM or AICAR 1 mM; 2 h up to 72 h. In kind it is cell-based. On the procedure: (§3) FIG. 10A-D illustrates resveratrol activation of AMP kinase in Neuro2a cells. Neuro2a cells were switched to serum-starvation medium (medium containing 0.2% FCS) and treated with DMSO (vehicle control), resveratrol (10 μM) or 5-aminoimidazole-4-carboxamide-1-β-D-ribofuranoside (AICAR) (1 mM). […] Very low levels of phosphorylated AMPK and ACC were detected in DMSO treated control cells at all time points tested. (C) Densitometric analysis of changes in phosphorylated AMPK and (D) phosphorylated ACC under different conditions is shown.
as §1
Plasmids and viruses. The dominant negative (dnAMPK) and constitutively active (caAMPK) plasmids were gifts from Russell Jones (University of Pennsylvania, Philadelphia Pa.), and pCXN-Cre was a gift of Inder Verma (Salk Institute, San Diego, Calif.). All constructs were subcloned into the lentiviral shuttle vector FCIV and verified by nucleotide sequence analysis. Viruses were prepared as previously described (Araki et al., 2004, Science 305:1010-1013). Protein and mRNA analysis. Immunoprecipitations and western blot analysis were performed by standard methods using antibodies directed against total AMPK, phosphorylated AMPK, total ACC or phosphorylated ACC that were obtained from Cell Signaling Technology (Beverley, Mass.). The phospho-AMPK antibody detects endogenous AMPK α1 and α2 when phosphorylated at threonine 172. The LKB1 antibody was purchased from Upstate (Lake Placid, N.Y.). Quantitative RT-PCR analysis was performed using Sybr-Green methodology on a model 7700 instrument (Applied Biosystems) as previously described (Araki et al., 2004, Science 305:1010-1013). Primer sequences were those used in previous studies (Motoshima, et al., 2006, J Physiol 574:63-71).
To explore the role of polyphenols, in particular, of resveratrol, we tested whether resveratrol altered the activity of AMPK in neuronal cells. Neuro2a neuroblastoma cells were treated with resveratrol (10 μM) and AMPK activation was examined using phospho-AMPK specific antibodies. […] To confirm that AMPK activation by resveratrol results in typical AMPK-mediated downstream responses, we monitored phosphorylation of ACC (acetyl Co-A carboxylase), a primary target of activated AMPK. […] To examine a potential mechanism of resveratrol-mediated AMPK activation, we measured cellular ATP levels as a decreased ATP:AMP ratio increases the phosphorylation of AMPK. ATP levels were monitored using a luciferase-based assay in neuro2A cells treated with resveratrol or Oligomycin, an inhibitor of mitochondrial oxidative phosphorylation and therefore ATP production. While the ATP concentration dropped from 5.874 μM in DMSO-treated cells (control) to 0.976 μM in Oligomycin treated cells within 2 hr, the ATP concentration in resveratrol-treated Neuro2a cells was not altered from control either at 2 hr (6.33 μM) or 24 hr (6.42 μM).

The subject of assay [3] is acetyl Co-A carboxylase (ACC). Description: ACC phosphorylation in Neuro2a cells (phospho-specific western blot). The assay is classed as cell-based. The following applies: resveratrol 10 μM or AICAR 1 mM; all time points to 72 hr. On the procedure:
as §3
Plasmids and viruses. […] Quantitative RT-PCR analysis was performed using Sybr-Green methodology on a model 7700 instrument (Applied Biosystems) as previously described (Araki et al., 2004, Science 305:1010-1013). […]
To explore the role of polyphenols, in particular, of resveratrol, we tested whether resveratrol altered the activity of AMPK in neuronal cells. […] To confirm that AMPK activation by resveratrol results in typical AMPK-mediated downstream responses, we monitored phosphorylation of ACC (acetyl Co-A carboxylase), a primary target of activated AMPK. […] To examine a potential mechanism of resveratrol-mediated AMPK activation, we measured cellular ATP levels as a decreased ATP:AMP ratio increases the phosphorylation of AMPK. […]

Another assay relates to DRG neurons. The assay can be described thus: axonal injury of DRG neurons after hypoxia and reoxygenation. The assay is classed as cell-based. The following applies: preincubation 45 min or lentiviral expression; 0.1% O2 8 or 16 hrs, 20 hrs reoxygenation. Here is the method: FIG. 18 illustrates that activation of AMPK protects axons while inhibition of AMPK function enhances axonal injury during oxygen deprivation.
To examine whether AMPK activation prior to hypoxic stress protects axons from injury, either constitutively active AMPK (CaAMPK) was expressed in DRG neurons, or neurons were preincubated with the AMPK activator AICAR for 45 min prior to hypoxia. […] Thus, treatments that increase AMPK activity (e.g. resveratrol, AICAR) can block the axonal damage and are neuroprotective.

Assay [4] concerns neuro2A cells. Description: Neuro2a cell proliferation, Ki67 immunocytochemistry. The assay is classed as cell-based. The following applies: 0.2% fetal calf serum; AICAR 1 mM or resveratrol 10 μM; 24 h after plating; DMSO controls 50%. Here is the method:
as §2

Assay [5] deals with Tfam, PGC-1α and MFN2 mRNA. Description: mitochondrial biogenesis markers, quantitative RT-PCR in Neuro2a cells. The assay is classed as cell-based. The conditions noted are these: with resveratrol 10 μM; Compound C 10 μM or dominant negative AMPK expression.
Experimental: Three days later cells were shifted to serum-starvation medium containing DMSO (control) or resveratrol (10 μM). In addition, uninfected Neuro2a cells in serum-starvation medium were treated with resveratrol alone, the AMPK inhibitor Compound C (CC, Biomol International L.P. (Plymouth Meeting, Pa.)) (10 μM) alone or with resveratrol and CC together. […] Values were normalized to the 18S transcript. Data shown is representative of two independent experiments.
Protein and mRNA analysis. […] Quantitative RT-PCR analysis was performed using Sybr-Green methodology on a model 7700 instrument (Applied Biosystems) as previously described (Araki et al., 2004, Science 305:1010-1013).
We treated Neuro2a cells for 3d with either DMSO (control) or resveratrol (10 μM) in the presence or absence of the AMPK inhibitor Compound C (10 μM). We assessed mitochondrial biogenesis by monitoring mRNA levels of mitofusin 2 (MFN2), a mitochondrial protein and marker of mitochondrial mass and two key regulators of mitochondrial biogenesis, peroxisome proliferator activated receptor γ coactivator 1α (PGC1α) and mitochondrial transcription factor A (Tfam) (Kelly, et al., 2004, Genes Dev 18:357-368).
The subject of the next assay is Nrk2. Description: NAD synthesis enzyme mRNA in rotenone-treated DRG neurons (qRT-PCR). The assay is classed as cell-based, rat. The following applies: 0.1 μM and 1 μM, 24 hours. On the procedure: FIG. 6A-B illustrates expression analysis of NAD biosynthetic enzymes in mammal showing (A) NAD biosynthesis enzyme mRNA levels after 1, 3, 7, and 14 days after nerve transection in rat DRG were determined by qRT-PCR in which the expression level was normalized to glyceraldehydes-3-phosphate dehydrogenase expression in each sample and is indicated relative to the expression level in non-axotomized DRG; (B) neurite degeneration introduced by incubation DRG in 1 or 0.1 μM rotenone for indicated time and NAD synthesis enzyme mRNA levels were determined by qRT-PCR as described in the text.
Real-time quantitative reverse transcription-PCR analysis. All the surgical procedures were performed according to National Institute of Health guidelines for care and use of laboratory animals at Washington University. […] Quantitative reverse transcription (RT)-PCR was performed by monitoring in real-time the increase in fluorescence of the SYBR-GREEN dye on a TaqMan 7700 Sequence Detection System (Applied Biosystems).
To investigate the expression of mammalian NAD biosynthetic enzymes in the nervous system, we performed quantitative RT-PCR using RNA from mouse brain, retina, spinal code, and DRG at age of E14, P0, P7, P14 and P21. […] We also analyzed expression of NAD synthetic enzymes during the axonal degeneration caused by neurotoxin in cultured rat DRG neuron. […]

For the compound `NC(=O)c1ncn([C@@H]2O[C@H](CO)[C@@H](O)[C@H]2O)c1N` [AICAR, 5-aminoimidazole-4-carboxamide-1-β-D-ribofuranoside, reference compound], in the assay on neuro2A cells [1] (0.2% FCS, resveratrol 10 μM or AICAR 1 mM), the “neurite outgrowth compared to serum starvation alone” value is reported as “increased neurite outgrowth”. Also, the cell survival entry in the assay with neuro2A cells [2] is on record as “resistant to death for a prolonged period of time”. Further, the AMPK phosphorylation result in the assay on AMPK is reported as “stimulated AMPK phosphorylation”. Moreover, in assay [3], the ACC phosphorylation entry is recorded as “promoted increased phosphorylation”. Moreover, the “axonal injury (axonal beading) after hypoxia” value in the assay on DRG neurons is on record as “significantly reduced axonal injury after hypoxia”. Besides, the “proliferating cells (Ki67)” value in the assay on neuro2A cells [4] stood at 12.8%.
With `c1cc(-c2cnn3cc(-c4ccc(OCCN5CCCCC5)cc4)cnc23)ccn1` [Compound C], in the assay with neuro2A cells [1] (resveratrol 10 μM, Compound C 10 μM, SIRT1 inhibitors, STO 609 2.5 μM or dnAMPK expression), the “effect on resveratrol-stimulated neurite outgrowth” value is listed as “reduced”. For the same compound, the “neurite growth, inhibitor by itself” value in the assay on neuro2A cells [1] (without resveratrol) is on record as “did not cause any significant inhibition of neurite growth”. The “effect on resveratrol-induced upregulation of mitochondrial markers” value in assay [5] was “severely diminished”. Further, the “axonal injury (axonal beading) after hypoxia” value in the assay with DRG neurons is “severe axonal injury”.
With `C=C(C)[C@H]1Cc2c(ccc3c2O[C@@H]2COc4cc(OC)c(OC)cc4[C@@H]2C3=O)O1` [rotenone], the “increase in expression of Nrk2” value in the assay with Nrk2 is listed as “more than 6 folds”.
